Measurements reported in paper PMC10435442, “Developing multitarget coumarin based anti-breast cancer agents: synthesis and molecular modeling study” (Scientific Reports, 2023).
In brackets after ≈: the same amount, converted by molar mass. Several values for one entry are separate records, joined by “and”; a condition that tells them apart may be missing. Equal entries are not always repeated. Where two headings read alike, the source gives them in different places.

Key:
[1] = test system: MDA-MB-231; test: DNA flow cytometric cell cycle analysis, MDA-MB-231; type: cell-based, human; conditions: for Comment (cell cycle phase of growth arrest) / DNA content %G0-G1 / DNA content %Pre-G1 / DNA content %S: MDA; for %G0-G1 / %Pre-G1 / %S: MDA-MB-231, IC50 concentration; for cell cycle arrest at S phase / increase of apoptotic cells in pre-G1 phase: MDA-MB-231, compared to control
[2] = test system: MDA-MB-231; test: Annexin V-FITC/PI dual staining apoptosis assay, MDA-MB-231; type: cell-based, human; conditions: for Apoptosis Early / Apoptosis Late / Apoptosis Total / Necrosis: MDA; for % Apoptosis Early / % Apoptosis Late / % Apoptosis Total / % Necrosis: MDA-MB-231
[3] = test system: Bax; test: Bax level (ELISA) in treated cells; type: cell-based, human; conditions: for Bax Conc: MDA-MB-231 cells
[4] = test system: Bcl-2; test: Bcl-2 level (ELISA) in treated cells; type: cell-based, human; conditions: for Bcl-2 Conc: MDA-MB-231 cells; for Bcl-2 Conc. (Average) / Bcl-2 Conc. (single wells): Bcl-2 ELISA; for BCL2 FLD (fold vs control): cont.MDA = 1
[5] = test system: Caspase-9; test: Caspase-9 level (ELISA) in treated cells; type: cell-based, human; conditions: for Caspase-9 Conc.: MDA-MB-231 cells
[6] = in vitro; conditions: human, MCF-10A cells (nonmalignant breast)
[7] = test system: MCF-7; test: MTT cytotoxicity assay, MCF-7; conditions: for IC50: Homo sapiens
[8] = test system: MDA-MB-231; test: MTT cytotoxicity assay, MDA-MB-231; conditions: for IC50: Homo sapiens; for % viability: MDA
[9] = test system: MCF-10A; test: MTT cytotoxicity assay, nonmalignant MCF-10A; conditions: read-out: MCF-10A IC50; MTT, nonmalignant MCF-10A;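 also: MTT assay with absorbance read at 570 nm after 48 h exposure of cells to serial compound concentrations at 37 °C, testing selectivity against nonmalignant versus cancer cells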
[10] = biological target: EGFR (Homo sapiens, UniProt P00533); test: In vitro EGFR enzyme inhibition assay (ELISA)
[11] = MCF7, read-out: cytotoxicity_IC50 mcf7
[12] = MDA-MB-231, read-out: MDA-MBA-231 IC50
[13] = MDA-MB-231, read-out: cytotoxicity_IC50 MDA
[14] = MDA, ELISA backfit, duplicate wells
[15] = MDA cells (MDA-MB-231) treated with the compound, cont.MDA 10.83±0.046
[16] = MDA cells (MDA-MB-231), duplicate wells, control 10.83
[17] = MDA cells (MDA-MB-231), mean of 2 wells, control 10.83
[18] = MDA cells (MDA-MB-231) treated with the compound, cont.MDA 2.611±0.19
[19] = MDA cells (MDA-MB-231), caspase9 ELISA, duplicate wells, control 4.084
[20] = MDA cells (MDA-MB-231), cont.MDA = 1

EGFR, sequence (P00533 25-1210): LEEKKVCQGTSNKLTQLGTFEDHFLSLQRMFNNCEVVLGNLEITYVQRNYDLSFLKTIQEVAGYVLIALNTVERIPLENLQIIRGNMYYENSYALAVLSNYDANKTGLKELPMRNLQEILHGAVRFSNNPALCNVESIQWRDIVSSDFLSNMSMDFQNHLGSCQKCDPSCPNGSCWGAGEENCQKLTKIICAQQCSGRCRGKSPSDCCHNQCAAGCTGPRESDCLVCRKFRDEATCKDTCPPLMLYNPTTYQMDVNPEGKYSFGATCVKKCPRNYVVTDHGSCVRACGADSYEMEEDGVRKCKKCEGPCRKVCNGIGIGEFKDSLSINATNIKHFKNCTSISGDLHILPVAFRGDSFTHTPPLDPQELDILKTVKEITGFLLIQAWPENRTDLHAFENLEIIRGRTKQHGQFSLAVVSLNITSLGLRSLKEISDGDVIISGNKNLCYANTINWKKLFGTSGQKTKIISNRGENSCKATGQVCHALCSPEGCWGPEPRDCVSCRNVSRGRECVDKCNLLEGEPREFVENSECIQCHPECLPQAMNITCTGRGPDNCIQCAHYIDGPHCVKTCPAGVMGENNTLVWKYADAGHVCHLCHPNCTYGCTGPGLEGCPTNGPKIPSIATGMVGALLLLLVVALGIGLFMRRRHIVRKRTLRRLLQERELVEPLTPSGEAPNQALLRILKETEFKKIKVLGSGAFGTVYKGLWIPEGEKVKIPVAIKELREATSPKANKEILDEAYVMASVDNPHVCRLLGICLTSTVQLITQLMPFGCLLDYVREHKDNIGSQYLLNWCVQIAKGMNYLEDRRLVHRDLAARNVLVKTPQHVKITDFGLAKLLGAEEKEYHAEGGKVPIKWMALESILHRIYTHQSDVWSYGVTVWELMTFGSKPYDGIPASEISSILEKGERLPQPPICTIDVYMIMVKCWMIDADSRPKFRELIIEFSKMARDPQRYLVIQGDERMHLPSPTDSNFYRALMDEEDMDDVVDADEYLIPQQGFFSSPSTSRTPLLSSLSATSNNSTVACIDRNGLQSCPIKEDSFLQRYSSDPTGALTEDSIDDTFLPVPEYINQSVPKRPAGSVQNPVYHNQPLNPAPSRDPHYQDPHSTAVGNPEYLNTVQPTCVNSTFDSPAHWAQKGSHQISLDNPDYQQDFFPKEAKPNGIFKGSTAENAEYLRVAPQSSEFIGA

In the case of `O=C(COc1ccc2c(COC(=O)c3ccc(Cl)cc3)cc(=O)oc2c1)c1ccc(Cl)cc1` [Compound 10, {7-[2-(4-Chlorophenyl)-2-oxoethoxy]-2-oxo-2H-chromen-4-yl}methyl 4-chlorobenzoate], the “Comment (cell cycle phase of growth arrest)” value [1] is reported as “cell growth arrest@ S”, the “DNA content %G0-G1” value [1] is reported as 51.97% and the “DNA content %Pre-G1” value [1] is reported as 33.43%. For the same compound, the “DNA content %S” value [1] was 43.82%, the “%G0-G1” value [1] was 51.97^ad ^AC % and the “%Pre-G1” value [1] was 33.43^bdf ^AB %. For the same compound, the “%S” value [1] was 43.82^bc ^D %, the “cell cycle arrest at S phase” value [1] was 1.59 folds and the “increase of apoptotic cells in pre-G1 phase” value [1] was 16.22 folds. For the same compound, the “Apoptosis Early” value [2] was 9.61, the “Apoptosis Late” value [2] was 17.83 and the “Apoptosis Total” value [2] was 33.43. The Necrosis [2] was 5.99, the “% Apoptosis Early” value [2] was 9.61^df % and the “% Apoptosis Late” value [2] was 17.83^df %. For the same compound, the “% Apoptosis Total” value [2] was 33.43% and 33.43^df %, the “% Necrosis” value [2] was 5.99% and the “Bax Conc” value [3] was 0.249±0.0079^be ng/ml. For the same compound, the “Bcl-2 Conc” value [4] was 4.088±0.058^cf ng/ml, the “Caspase-9 Conc.” value [5] was 16.77±0.37^be ng/ml and the IC50 at 48 h [6] was 37.1 ± 1.81 µg/mL (≈ 76.8 µM). For the same compound, the viability at 48 h, 0.4 ug [6] was 82.6%, the viability at 48 h, 1.6 ug [6] was 69.1% and the viability at 48 h, 6.25 ug [6] was 61.1%. It also gave a viability at 48 h, 25 ug [6] of 52.6%, a viability at 48 h, 100 ug [6] of 44.4% and an IC50 ([7]; MCF7, read-out: MCF-7 IC50) of 95800 ± 2810 nM. The IC50 [7, 11] was 46.3 ± 2.81 µg/mL, the “% viability” value ([7]; MCF7, 0.4ug) was 85.616% and the “% viability” value ([7]; MCF7, 1.6ug) was 73.288%. The “% viability” value ([7]; MCF7, 6.3ug) was 64.521%, the “% viability” value ([7]; MCF7, 25ug) was 54.315% and the “% viability” value ([7]; MCF7, 100ug) was 44.863%. For the same compound, the IC50 [8, 12] was 2300 ± 60 nM, the IC50 [8, 13] was 1.09 ± 0.06 µg/mL and the “% viability” value ([8]; 0.4ug (log conc. -0.41)) was 56.384%. For the same compound, the “% viability” value ([8]; 1.6ug (log conc. 0.19)) was 47.375%, the “% viability” value ([8]; 6.25ug (log conc. 0.8)) was 40.274% and the “% viability” value ([8]; 25ug (log conc. 1.4)) was 30.609%. The “% viability” value ([8]; 100ug (log conc. 2)) was 23.5084%, the IC50 [9] was 76800 ± 1810 nM and the IC50 ([10]; EGFR IC50, lab report 01-11-2021, 10 compounds) was 86.9 nM. For the same compound, the IC50 ([10]; EGFR inhibition IC50) was 86 ± 6 nM and the “Percentage above Reference IC50 (potency relative to erlotinib)” value ([10]; reference Erlotinib) was 97.67% and 97.674%.

For `COc1ccccc1C(=O)OCc1cc(=O)oc2cc(OCC(=O)c3ccc(Cl)cc3)ccc12` [Compound 12, {7-[2-(4-Chlorophenyl)-2-oxoethoxy]-2-oxo-2H-chromen-4-yl}methyl 2-methoxybenzoate], the “Comment (cell cycle phase of growth arrest)” value [1] was “cell growth arrest@ G1/S”, the “DNA content %G0-G1” value [1] was 63.58% and the “DNA content %Pre-G1” value [1] was 46.28%. The “DNA content %S” value [1] was 29.97%, the “%G0-G1” value [1] was 63.58^abc ^ADE % and the “%Pre-G1” value [1] was 46.28^cdg ^ABC %. For the same compound, the “%S” value [1] was 29.97 ^BDF %, the “cell cycle arrest at S phase” value [1] was 1.08 folds and the “increase of apoptotic cells in pre-G1 phase” value [1] was 22.46 folds. The “Apoptosis Early” value [2] was 16.75, the “Apoptosis Late” value [2] was 23.02 and the “Apoptosis Total” value [2] was 46.28. The Necrosis [2] was 6.51, the “% Apoptosis Early” value [2] was 16.75^beg % and the “% Apoptosis Late” value [2] was 23.02^eg %. The “% Apoptosis Total” value [2] was 46.28% and 46.28^be %, the “% Necrosis” value [2] was 6.51% and the “Bax Conc” value [3] was 0.36±0.0118^cef ng/ml. For the same compound, the “Bcl-2 Conc” value [4] was 2.934±0.154^be ng/ml, the “Caspase-9 Conc.” value [5] was 19.16±0.41^df ng/ml and the IC50 at 48 h [6] was 34.5 ± 1.68 µg/mL (≈ 72 µM). The viability at 48 h, 0.4 ug [6] was 81.4%, the viability at 48 h, 1.6 ug [6] was 75.8% and the viability at 48 h, 6.25 ug [6] was 62.5%. It also gave a viability at 48 h, 25 ug [6] of 55%, a viability at 48 h, 100 ug [6] of 39.6% and an IC50 ([7]; MCF7, read-out: MCF-7 IC50) of 13200 ± 380 nM. For the same compound, the IC50 [7, 11] was 6.33 ± 0.38 µg/mL, the “% viability” value ([7]; MCF7, 0.4ug) was 65.22% and the “% viability” value ([7]; MCF7, 1.6ug) was 57.537%. The “% viability” value ([7]; MCF7, 6.3ug) was 50.147%, the “% viability” value ([7]; MCF7, 25ug) was 44.457% and the “% viability” value ([7]; MCF7, 100ug) was 33.0205%. The IC50 [8, 12] was 3500 ± 90 nM, the IC50 [8, 13] was 1.71 ± 0.09 µg/mL and the “% viability” value ([8]; 0.4ug (log conc. -0.41)) was 56.517%. For the same compound, the “% viability” value ([8]; 1.6ug (log conc. 0.19)) was 51.229%, the “% viability” value ([8]; 6.25ug (log conc. 0.8)) was 44.231% and the “% viability” value ([8]; 25ug (log conc. 1.4)) was 36.538%. The “% viability” value ([8]; 100ug (log conc. 2)) was 26.8697%, the IC50 [9] was 72100 ± 1680 nM and the IC50 ([10]; EGFR IC50, lab report 01-09-2021, 04 compounds, reference Erlotinib) was 177 nM. It also gave an IC50 ([10]; EGFR inhibition IC50) of 177 ± 1.8 nM, an inhibition at 10 pg/mL ([10]; read-out: EGFR %inh) of 32% and an inhibition at 0.0001 µg/mL ([10]; read-out: EGFR %inh) of 50%. The inhibition at 0.001 µg/mL ([10]; read-out: EGFR %inh) was 73%, the inhibition at 0.01 µg/mL ([10]; read-out: EGFR %inh) was 88% and the “Percentage above Reference IC50 (potency relative to erlotinib)” value ([10]; reference Erlotinib) was 81.92%.

For `O=C(COc1ccc2c(COC(=O)c3ccccc3)cc(=O)oc2c1)c1ccc(Cl)cc1` [Compound S8], the “Bax Conc. (Average)” value ([3]; MCF7, ELISA backfit, wells A2-C2) was 164.5 pg/mL, the BAX ([3]; MCF7, cell culture supernatant) was 164.5 ± 5.58 pg/mL and the “BAX FLD” value ([3]; MCF7, fold vs cont.MCF7 = 1) was 5.27. The BCL2 conc. ([4]; MCF7) was 3.291 ± 0.36 ng/mL, the “BCL2 FLD” value ([4]; MCF7, fold vs cont.MCF7 = 1) was 0.44 and the “Bcl-2 Conc. (Average)” value ([4]; MCF7 cells treated with the compound, mean of 3 wells, control 7.438) was 3.291 ng/mL. For the same compound, the “Bcl-2 Conc. (single wells)” value ([4]; MCF7 cells treated with the compound, replicate wells, control 7.438) was 3.693 ng/mL and 3.01 ng/mL and 3.172 ng/mL, the Casp9 ([5]; MCF7 cells treated with the compound, cont.MCF7 4.528±0.61) was 30.39 ± 2.56 ng/mL and the “Caspase 9 Conc. (Average)” value ([5]; MCF7 cells, caspase9 ELISA, mean of 3 wells, control 4.528) was 30.39 ng/mL. For the same compound, the “Caspase 9 Conc. (single wells)” value ([5]; MCF7 cells, caspase9 ELISA, replicate wells, control 4.528) was 27.43 ng/mL and 31.78 ng/mL and 31.97 ng/mL and the “Casp9 FLD (fold vs control)” value ([5]; MCF7 cells, cont.MCF7 = 1) was 6.71.

With `O=C(COc1ccc2c(COC(=O)c3ccc(Cl)cc3)cc(=O)oc2c1)c1ccc(Cl)cc1` [s10] the “Bax Conc. (Average)” value [3, 14] was 248.9 pg/mL, the BAX ([3]; MDA, cell culture supernatant) was 248.9 ± 7.88 pg/mL and the “BAX FLD” value ([3]; MDA, fold vs cont.MDA = 1) was 3.6. The BCL2 conc. [4, 15] was 4.088 ± 0.058 ng/mL, the “Bcl-2 Conc. (single wells)” value [4, 16] was 4.046 ng/mL and 4.129 ng/mL and the “Bcl-2 Conc. (Average)” value [4, 17] was 4.088 ng/mL. For the same compound, the “BCL2 FLD (fold vs control)” value ([4]; MDA cells (MDA-MB-231)) was 0.377, the Casp9 [5, 18] was 16.77 ± 0.37 ng/mL and the “Caspase 9 Conc. (single wells)” value [5, 19] was 18.48 ng/mL and 17.62 ng/mL. The “Casp9 FLD (fold vs control)” value [5, 20] was 6.42.

With `COc1ccccc1C(=O)OCc1cc(=O)oc2cc(OCC(=O)c3ccc(Cl)cc3)ccc12` [s12] the “Bax Conc. (Average)” value [3, 14] was 360.4 pg/mL, the BAX ([3]; MDA, cell culture supernatant) was 360.4 ± 11.8 pg/mL and the “BAX FLD” value ([3]; MDA, fold vs cont.MDA = 1) was 5.22. For the same compound, the BCL2 conc. [4, 15] was 2.934 ± 0.154 ng/mL, the “Bcl-2 Conc. (single wells)” value [4, 16] was 2.826 ng/mL and 3.043 ng/mL and the “Bcl-2 Conc. (Average)” value [4, 17] was 2.934 ng/mL. The “BCL2 FLD (fold vs control)” value ([4]; MDA cells (MDA-MB-231)) was 0.271, the Casp9 [5, 18] was 19.16 ± 0.41 ng/mL and the “Caspase 9 Conc. (single wells)” value [5, 19] was 21.43 ng/mL and 21.56 ng/mL. For the same compound, the “Casp9 FLD (fold vs control)” value [5, 20] was 7.34.
